Assay results from PubChem BioAssay (NCI).
“And” between values parts separate entries of the source, which are not always exact repeats. Equal entries are not always repeated.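 Growth conditions: 96-well plates. Treatment: test compound, 48 hours, 5 concentrations. Analysis: linear interpolation between bracketing concentrations; unreached endpoints set to highest concentration. The concentration for 50% growth inhibition is given as GI50. TGI denotes the concentration required for complete inhibition of growth.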

Tests used:
Test in all cases: NCI-60 cell line screen, 48 h
CAKI-1 renal = tested on: CAKI-1 renal
NCI-H460 lung = tested on: NCI-H460 lung
SR leukemia = tested on: SR leukemia
U251 CNS = tested on: U251 CNS
UO-31 renal = tested on: UO-31 renal
BT-549 breast = tested on: BT-549 breast
DU-145 prostate = tested on: DU-145 prostate
HOP-62 NSCLC = tested on: HOP-62 NSCLC
MCF7 breast = tested on: MCF7 breast
NCI/ADR-RES ovarian = tested on: NCI/ADR-RES ovarian

Structure (SMILES)	TGI (CAKI-1 renal)	TGI (NCI-H460 lung)	TGI (SR leukemia)	TGI (U251 CNS)	TGI (UO-31 renal)	GI50 (BT-549 breast) [µM]	TGI (BT-549 breast) [µM]	GI50 (CAKI-1 renal) [µM]	GI50 (DU-145 prostate) [µM]	TGI (DU-145 prostate) [µM]	GI50 (HOP-62 NSCLC) [µM]	TGI (HOP-62 NSCLC) [µM]	GI50 (MCF7 breast) [µM]	TGI (MCF7 breast) [µM]	GI50 (NCI-H460 lung) [µM]	GI50 (NCI/ADR-RES ovarian) [µM]	TGI (NCI/ADR-RES ovarian) [µM]	GI50 (SR leukemia) [µM]	GI50 (U251 CNS) [µM]	GI50 (UO-31 renal) [µM]
CC[C@@H]1NC(C(=O)OC)Cc2c1[nH]c1ccccc21 (stereo partly specified)	> 100 µM	> 100 µM	> 100 µM	> 100 µM	> 100 µM	–	–	–	–	–	–	–	–	–	–	–	–	–	–	–
COc1ccc(-c2c(C#N)c(N3CCOCC3)nc3[nH]c(=S)[nH]c(=S)c23)cc1OC	87.3 µM	> 100 µM	> 100 µM	> 100 µM	> 100 µM	32.2	> 100	30.7	58.7	> 100	83.2	> 100	29.4	> 100	27.7	56.6	> 100	11.5	46.5	82.1
CCCCNCCCNCCCNC(=O)c1csc(-c2csc(CCNC(=O)C(NC(=O)C(C)C(O)C(C)NC(=O)C(NC(=O)c3nc(C(CC(N)=O)NCC(N)C(N)=O)nc(N)c3C)C(OC3OC(CO)C(O)C(O)C3OC3OC(CO)C(O)C(OC(N)=O)C3O)c3cnc[nH]3)C(C)O)n2)n1 (stereo unspecified)	50 µM and 17 µM	5.22 µM and 13 µM	50 µM and > 100 µM	50 µM and 8.07 µM	15.8 µM and 3.81 µM	–	> 50	–	–	50	0.109	8.65	–	37.7	0.0396	–	–	7.28	0.807	–
O=c1[nH]c(O)c(C=Nc2ccc(-c3nc4ccccc4o3)cc2)c(=O)[nH]1	> 100 µM	> 100 µM	> 100 µM	75.9 µM	> 100 µM	> 100	> 100	33.1	> 100	> 100	> 100	> 100	–	–	> 100	3.56	9.59	44.5	23.8	82.4
CCCCCCCCc1cc2c(O)c(c1)Cc1cc(CCCCCCCC)cc(c1O)Cc1cc(CCCCCCCC)cc(c1O)Cc1cc(CCCCCCCC)cc(c1O)Cc1cc(CCCCCCCC)cc(c1O)Cc1cc(CCCCCCCC)cc(c1O)C2	> 100 µM	> 100 µM	> 100 µM	> 100 µM	> 100 µM	–	–	–	–	–	–	–	–	–	–	–	–	–	–	–
NC(N)=Nc1nc2ccccc2o1	> 100 µM	> 100 µM	> 100 µM	> 100 µM	> 100 µM	> 100	> 100	> 100	> 100	> 100	> 100	> 100	> 100	> 100	> 100	> 100	> 100	> 100	> 100	79.4
COc1c2occc2c(N)c2ccc(=O)oc12	> 100 µM	> 100 µM	> 100 µM	> 100 µM	> 100 µM	–	> 100	–	–	> 100	–	> 100	–	> 100	–	–	> 100	–	–	–
O/N=C1\CCCCC1C(NO)c1ccccc1 (stereo unspecified)	–	> 100 µM	–	> 100 µM	> 100 µM	–	–	–	–	–	–	> 100	–	–	–	–	–	–	–	–
CCOC(=O)C(Br)=C1OC(=O)c2ccccc2-c2ccccc21 (mixture of isomers)	32.7 µM	–	47.2 µM	59.4 µM	> 100 µM	–	–	–	–	–	–	37.4	–	–	–	–	–	–	–	–
O=C(c1ccc([N+](=O)[O-])cc1[N+](=O)[O-])N(/N=C/C=C/c1ccccc1)c1nnc(-c2ccccc2)c(-c2ccccc2)n1	79.6 µM	> 100 µM	–	> 100 µM	50.6 µM	–	–	–	–	–	–	> 100	–	–	–	–	–	–	–	–
COc1cc(C[P+](c2ccccc2)(c2ccccc2)c2ccccc2)cc(OC)c1OC	> 100 µM	> 100 µM	> 100 µM	> 100 µM	> 100 µM	–	–	–	–	–	–	> 100	–	–	–	–	–	–	–	–
CCCCCCCCSC1=C(Cl)C(=O)C(OC)=C(OC)C1=O	34.7 µM	69.5 µM	–	26.6 µM	25.7 µM	–	31.4	–	–	40.5	–	51.7	–	17.4	–	–	> 100	–	–	–
O=S(=O)(OI(OI(OS(=O)(=O)C(F)(F)F)c1ccccc1)c1ccccc1)C(F)(F)F	> 100 µM	> 100 µM	–	> 100 µM	> 100 µM	–	–	–	–	–	–	> 100	–	–	–	–	–	–	–	–
CCCN(CCC)c1c([N+](=O)[O-])cc(C(=O)N(CC)CC)cc1[N+](=O)[O-]	> 100 µM	60.2 µM	55.2 µM	32.7 µM	63.1 µM	–	–	–	–	–	–	> 100	–	–	–	–	–	–	–	–
CCCCCCCC(=O)OCC1OC(n2cc(F)c(=O)[nH]c2=O)C(N)C(OC(=O)CCCCCCC)C1O (stereo unspecified)	41.5 µM	34.8 µM	–	33.6 µM	36.6 µM	–	–	–	–	–	–	32.5	–	–	–	–	–	–	–	–
O=c1[nH]c(=O)n(C2CC(O)C(CO)O2)cc1OS(=O)(=O)C(F)(F)F (stereo unspecified)	> 100 µM	> 100 µM	–	> 100 µM	–	–	–	–	–	–	–	> 100	–	–	–	–	–	–	–	–
CC(C)C1CN(C(=O)OCc2ccccc2)C2N1C(=O)C2(C)OCc1ccccc1 (stereo unspecified)	–	> 100 µM	98 µM	> 100 µM	68.8 µM	–	–	–	–	–	–	> 100	–	–	–	–	–	–	–	–
O=C1C=C(c2c(O)ccc3ccccc23)c2cc(O)ccc2C1=O	40.1 µM	44.7 µM	42.9 µM	28.4 µM	36.5 µM	–	–	–	–	–	–	35.4	–	–	–	–	–	–	–	–
Cc1nc2sccn2c1-c1nc2sccn2c1/C=C1/C(=O)Nc2ccccc21	69.4 µM	13.5 µM	–	64.8 µM	89.7 µM	1.85	7.27	5.29	4.64	21.5	3.61	> 100	1.5	6.51	3.09	9.08	> 100	–	4.54	4.93
CSC[C@H](NC(=O)COc1cccc2cnccc12)C(=O)NC(Cc1ccccc1)C(O)C(=O)N1CSC[C@H]1C(=O)NC(C)(C)C (stereo partly specified)	–	> 100 µM	> 100 µM	> 100 µM	> 100 µM	–	> 100	–	–	> 100	–	> 100	–	> 100	–	–	> 100	–	–	–
NNc1ncnc2nc[nH]c12	18.3 µM	51.6 µM	–	> 100 µM	> 100 µM	4.22	> 94.3	0.793	3.29	67.8	2.25	10.5	3.1	> 100	5.58	3.37	> 100	–	10.9	2.48
